Assay results: patent US7897620B2, “Methods of using anti-inflammatory compounds” (Cambridge Enterprise Limited, priority 2007, dated 2011)

Tested on: RANTES induced THP-1 cell migration
Experiment: ChemoTx transwell migration assay, RANTES induced migration of THP-1 cells
Type: cell-based
Settings: Homo sapiens, maximal dose of chemoattractant, read-out: ED50 RANTES
Method: In principle, this assay consists of two chambers separated by a porous membrane. The chemoattractant is placed in the lower compartment and the cells are placed in the upper compartment. After incubation for a period at 37° C. the cells move towards the chemoattractant, and the number of cells in the lower compartment is proportional to the chemoattractant activity (relative to a series of controls).
The THP-1 cell line (European Cell Culture Collection) were used as the leukocyte cell population.
First, the cell suspension to be placed in the upper compartment is prepared. The THP-1 cells are pelleted by centrifugation (770×g; 4 mins) and washed with Geys Balanced Salt Solution with 1 mg/ml BSA (GBSS+BSA). This wash is then repeated, and the cells repelleted before being resuspended in a small volume of GBSS+BSA for counting, for example using a standard haemocytometer.
The volume of GBSS+BSA is then adjusted depending on the number of cells present so that the cells are at final density of 4.45×10^6 cells per ml of GBSS+BSA. This ensures that there are […] THP-1 cells in each 25 μl of the solution that will be placed in the upper chamber of the plate.
To test a single compound for its ability to inhibit chemokine induced migration, it is necessary to prepare two lots of cells. The suspension of THP-1 cells at 4.45×10^6 cells/ml is divided into two pots. […]

O=C1NCCCC[C@@H]1NC(=O)C12CC3CC(CC(C3)C1)C2 [(II), 3-(adamantane-1-carbonylamino)-caprolactam]
EC50: 0.1 nM
